# Test results: publication PMC8041433 (Environmental Health Perspectives, 2021)
# “And” between values parts separate entries of the source, which are not always exact repeats. Identical values can stand only once. Counter-ions that a name gives are not always drawn. Like-named read-outs stand apart in the source and are kept apart here.
# Tests used:
# [1] = target: T1, recombinant human AChE (Homo sapiens, UniProt P22303); test: biochemical
# [2] = target: T1, recombinant human AChE; test: biochemical; remark: listed apart in the source
# [3] = target: AChE in SH-SY5Y cells (Homo sapiens, UniProt P22303); test: cell-based
# AChE in SH-SY5Y cells, sequence (P22303 32-614): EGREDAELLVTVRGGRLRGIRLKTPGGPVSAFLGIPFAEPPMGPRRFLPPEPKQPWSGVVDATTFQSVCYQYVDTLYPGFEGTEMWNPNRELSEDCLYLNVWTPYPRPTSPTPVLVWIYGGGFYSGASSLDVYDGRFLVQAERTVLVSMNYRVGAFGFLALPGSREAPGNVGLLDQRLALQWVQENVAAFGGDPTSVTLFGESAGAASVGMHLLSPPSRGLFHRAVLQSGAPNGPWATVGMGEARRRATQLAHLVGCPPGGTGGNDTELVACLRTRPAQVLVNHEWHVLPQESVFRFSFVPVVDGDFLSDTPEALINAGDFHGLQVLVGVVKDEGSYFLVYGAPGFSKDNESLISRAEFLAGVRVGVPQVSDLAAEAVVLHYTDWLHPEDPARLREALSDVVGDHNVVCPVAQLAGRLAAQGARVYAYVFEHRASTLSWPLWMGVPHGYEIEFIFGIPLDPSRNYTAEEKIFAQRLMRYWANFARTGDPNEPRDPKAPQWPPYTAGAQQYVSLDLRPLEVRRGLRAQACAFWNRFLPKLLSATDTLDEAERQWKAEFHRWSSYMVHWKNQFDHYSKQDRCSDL
# [4] = target: AChE in SH-SY5Y spheroids (Homo sapiens, UniProt P22303); test: cell-based
# AChE in SH-SY5Y spheroids, sequence (P22303 32-614): as above
# [5] = target: AChE in neural stem cells (Homo sapiens, UniProt P22303); test: cell-based
# AChE in neural stem cells, sequence (P22303 32-614): as above
# [6] = target: AChE in neural stem cell spheroids (Homo sapiens, UniProt P22303); test: cell-based
# AChE in neural stem cell spheroids, sequence (P22303 32-614): as above
# [7] = target: T1, recombinant human AChE; test: biochemical; format: biochemical; details: for AC50: AC50 (uM)
# [8] = target: T1, recombinant human AChE
# [9] = target: T1, recombinant human AChE; test: biochemical; remark: listed apart in the source
# [10] = potency (IC50), SH-SY5Y cells monolayer
# [11] = potency (IC50), SH-SY5Y spheroids (24 h)
# [12] = potency (IC50), SH-SY5Y spheroids (48 h)
# [13] = potency (IC50), Neural stem cell spheroid (24 h)
# [14] = potency (IC50), Neural stem cell spheroid (48 h)
# [15] = potency (IC50), Enzyme with microsomes
# For IR or R in this document: key: Reversible (R); Irreversible (IR); ND, not detected in enzyme-based AChE inhibition assay from current study.
# T1 sequence (P22303 32-614): as above
SMILES,CC-v2 (curve classes) [1],Efficacy [1],IC50 ([1]; IC50 (uM)),"IC50 ([1]; potency (IC50), Enzyme) [µM]",IC50 [2] [µM],CC-v2 (curve classes) [3],IC50 ([3]; IC50 (uM)),"IC50 [3, 10] [µM]","IC50 [4, 11] [µM]","IC50 [4, 12] [µM]",IC50 [5] [µM],"IC50 [6, 13] [µM]","IC50 [6, 14] [µM]",IR or R [7],AC50 ([7]; activity_5),AC50 ([7]; activity_10),CC-v2 (curve classes) [8],Efficacy [8],"IC50 [9, 15] [µM]",AC50 [7],also measured
O=C(O)/C=C/C(=O)O.O=C1c2ccccc2C(=O)N1CCc1noc(-c2ccc(CN3CCCCCC3)s2)n1 [PharmaGSID_48172],-2.1,-99.042,23.1 µM,11.1 ± 1.52,21.2 ± 1.44,-1.1,6.51 µM and 8.19 µM,16.3 ± 1.86,17.5 ± 16.2,14.5 ± 1.67,36.3,17.1 ± 3.86,20.5,R,22.9 µM and 36.3 µM and 32.3 µM,20.4 µM and 36.3 µM and 28.8 µM,-2.2,-51.694,24.7 ± 1.61,–,AC50 ([7]; activity_60): 32.3 µM and 40.7 µM and 22.9 µM; IC50 ([9]; IC50 (uM)): 58 µM
"Cc1ccc2c(n1)Oc1ccc(C(C)C(=O)OCC(=O)N(C)C)cc1C2 (stereo not shown) [Mepranoprofen arbamel, reference compound]",-2.2 and -1.1,–,24.5 µM and 15.5 µM,15.4 ± 1.77,24.3,-2.1 and -1.1,15.5 µM and 12.3 µM and 27.5 µM,19.3,7.46 ± 3.5,18 ± 2.29,12.7 ± 0.85,12.5 ± 3.49,11.3,–,–,–,4,0,37.3 ± 5.13,12.2 µM and 13.7 µM and 19.3 µM (3×) and 7.69 µM and 17.2 µM and 9.68 µM,–
CNC(=O)ON=C(C)SC [Methomyl],-1.1,-92.651,–,1.83 ± 0.12,3.83 ± 0.53,-1.1,1.59 µM and 2 µM,4.11 ± 0.27,6.41 ± 8.14,3.81 ± 0.25,7.99 ± 1.49,6.27 ± 2.23,9.75,R,–,–,-1.1,-96.277,3.18 ± 0.66,–,–
"CN1C(=O)COc2c(C(=O)NC3CN4CCC3CC4)cc(Cl)cc21 (stereo not shown) [Azasetron hydrochloride, reference compound]",-2.2,-34.351,30.9 µM,7.72,8.98 ± 0.61,-2.1 and -2.2,38.9 µM and 34.7 µM and 17.4 µM,6.6,9.64,6.85,6.88,16.5,18.8,R,–,–,4,0,8.97,17.2 µM (2×) and 3.43 µM and 21.7 µM and 19.3 µM (2×) and 12.2 µM (2×) and 15.3 µM,–
Cc1nc(N(C)C)nc(OC(=O)N(C)C)c1C [Pirimicarb],-1.1,-85.325,–,12.7 ± 2.36,8.21 ± 0.56,-1.1,11.2 µM,7.42 ± 2.77,7.09 ± 4.92,–,2.84 ± 0.65,1.4 ± 0.16,2.47,R,49.8 µM and 62.7 µM and 22.2 µM,19.8 µM and 44.4 µM and 49.8 µM,-2.2,-73.016,8.53 ± 0.55,–,"IC50 ([4]; read-out: potency (IC50), SH-SY5Y spheroids (48 h)): 15.2 ± 0.99 µM; AC50 ([7]; activity_60): 19.8 µM and 5.59 µM and 9.93 µM"
CCOC(=O)C(SP(=S)(OC)OC)c1ccccc1 (stereo not shown) [Phenthoate],-2.2,-77.281,71 µM,25.1 ± 2.88,38.1 ± 2.48,-1.1 and -2.1,31.7 µM and 22.4 µM and 25.2 µM,12.6 ± 1.44,1.01 ± 1.29,20.4 ± 5.69,33.2 ± 15.3,26.5 ± 11.5,8.66,–,44.4 µM,49.8 µM and 39.5 µM,-3,-48.701,29.1 ± 1.97,–,AC50 ([7]; activity_60): 39.5 µM and 28 µM and 31.4 µM; IC50 ([9]; IC50 (uM)): 79.6 µM
"CCOP(=S)(OCC)Oc1nc(Cl)c(Cl)cc1Cl [Chlorpyrifos, reference compound]",–,–,89.4 µM and 79.9 µM and 89.6 µM,48,95.7 ± 6.24,-2.1,35.6 µM and 35.7 µM and 44.9 µM and 63.5 µM,41.1,41.7,36.7,11.9,–,2.58,–,–,–,-1.1,–,1.4,28 µM and 44.4 µM and 62.7 µM and 49.8 µM and 55.9 µM,"IC50 ([3]; read-out: IC50): 39.9 µM and 40 µM; IC50 ([6]; read-out: potency (IC50), Neural stem cell spheroid (24 h)): 1.21 µM"
CCOP(=O)(Sc1ccccc1)Sc1ccccc1 [Edifenphos],-2.1,-122.577,–,4.79 ± 0.31,3.03 ± 0.2,-1.1,3.99 µM and 3.17 µM and 5.02 µM,1.73 ± 0.43,4.79 ± 1.57,2.08 ± 0.37,1.31 ± 0.23,0.88 ± 0.1,1.21 ± 0.17,–,–,–,-3,-113.282,7.31 ± 0.49,28 µM and 62.7 µM and 31.4 µM (2×) and 25 µM and 49.8 µM and 35.2 µM,–
CNC(=O)ON=C(CSC)C(C)(C)C [Thiofanox],-1.1,-92.082,–,1.91 ± 0.26,3.18 ± 0.59,-1.1,1.59 µM and 1.78 µM,3.04 ± 0.41,6.89 ± 6.18,3.46 ± 0.86,4.83 ± 0.82,2.83 ± 0.59,3.64,–,–,–,-1.1,-91.728,2.59 ± 0.17,2.8 µM and 4.44 µM and 4.98 µM and 3.95 µM and 2.22 µM and 1.4 µM and 1.98 µM,–
"Cc1nc2n(c(=O)c1CCN1CCC(C(=O)c3ccc(F)cc3)CC1)CCS2 [Setoperone, reference compound]",-2.2,-57.619,30.9 µM,14.2 ± 0.96,20.1 ± 1.36,-2.1,13.8 µM and 12.3 µM and 15.5 µM,16 ± 1.08,2.66 ± 1.88,13.7 ± 1.58,8.35 ± 1.14,–,–,R,4.32 µM and 6.11 µM and 7.69 µM,4.85 µM and 7.69 µM and 10.9 µM,4,0,18.6 ± 1.21,–,"potency (IC50), Neural stem cell spheroid (24 h) [6]: Inactive; AC50 ([7]; activity_60): 6.11 µM and 6.85 µM"
CNC(=O)Oc1cccc2c1OC(C)(C)O2 [Bendiocarb],-1.1,–,–,0.51 ± 0.03,0.92 ± 0.06,-1.1,–,1.07 ± 0.06,44.7 ± 19.4,54.1 ± 7.44,46.2 ± 3.12,45.2 ± 10.3,47.1,R,–,–,-1.1,–,0.88,70.3 µM (2×) and 78.9 µM and 88.5 µM (2×) and 55.9 µM and 62.7 µM,–
